For assay [1], the system named is 4T1 murine breast cancer cells. Nature of the assay: Bead-assisted flow cytometry for CD81+/Pimo+ vesicles from hypoxic or oxic cell cultures. Conditions: 100 μM pimonidazole, 24 hours, 0.5% oxygen vs regular air. Type of assay: cell-based. The protocol: Isolating exosome from cell culture and Flow Cytometry analysis of isolated exosomes utilizing bead-assisted assay (FIGS. 10A-10B): 4T1 murine breast cancer cells were cultured in DMEM medium containing 10% Fetal Bovine Serum (FBS) at 37° C. in a humidified incubator with 5% CO2 and sub-cultured twice a week. For isolation of exosomes from 4T1 cultures, 1 million cells were plated in 10 cm plates and allowed to adhere overnight in the incubator. Cells were then washed with PBS, and the medium was changed to a medium containing 5% exosome-depleted FBS. Plates were grouped into four sets of five plates each. 100 μM pimonidazole was added to two sets, half of plates were incubated in a regular air incubator, and the other half in an incubator containing 0.5% Oxygen. After 24 hours, the medium was collected and subjected to sequential centrifugation at 1200, 3000, 10000, and 35000 rpm for 5, 15, 45 minutes, and 4 hours respectively. The final pellet was washed with PBS and centrifuged at 35000 rpm for 2 hours before being resuspended in 100 μl of PBS. The exosome amount was estimated using a BCA protein assay and the exosomes size was confirmed using a Nanoparticle Tracking Analyzer (NTA Instrument). […] Following the manufacture protocols, compensation beads were used to optimize fluorescence compensation settings and correct for spectral overlap between fluorophores. […]
On the technique in general: A flow cytometer gives signals particle by particle.

The subject of assay [2] is exosomes isolated from hypoxic cells. In words: Fluorescent plate reader detection of pimonidazole adducts in isolated exosomes with FITC anti-pimonidazole antibody. Type of assay: cell-based. Conditions: FITC-labeled anti-pimonidazole antibody, plate reader 485/528 nm. From the text:
FIGS. 10A-10B are charts showing results from a flow cytometry-based bead assay designed to allow conventional flow cytometers to assess the presence of various markers on exosome sized particles. This is accomplished by using beads of known size which are bound by exosomes if they have the marker (antibody target) in question. It is clear that exosomes derived from hypoxic cells have an augmented amount of pimonidazole adducts present. The inventors also tested for the general immunoreactivity of hypoxic-cell derived exosomes using a standard plate reader and a commercially available fluorescently conjugated anti-pimonidazole antibody. Briefly, isolated exosomes from cell culture medium from mouse serum samples were, suspended in 1% bovine serum albumin, and incubated with a fluorescently tagged anti-pimonidazole antibody. After a period of 2 hours or overnight, the exosomes were washed twice, resuspended in PBS and the fluorescent signal was determined using a Cytation 5 multi-mode plate reader.
Labeling exosomes with FITC-conjugated anti-pimonidazole antibody and quantifying the labeled exosomes'(FIG. 11): 10-40 μg of exosomes were utilized for antibody labeling in a 100 μl total volume containing 1% BSA as a blocking reagent. […] Fluorescence readings were obtained using a Cytation 5 plate reader at excitation/emission wavelengths of 485/528 nm (+/−20 nm).

Take `O=[N+]([O-])c1nccn1CC(O)CN1CCCCC1` (centres unmarked) [pimonidazole]: in assay [1], the “enhancement in percent of vesicles labeled in hypoxic vs oxic conditions” value is given as 4 fold. For the same compound, in assay [2], the “increase in fluorescence signal, exosomes from hypoxic cells vs cells grown in normal oxygen” value is about 2.5 fold.
